Reference: patent publication US4355104A, “Bacteriolytic proteins” (priority 1980, dated 1982)

Assays:
E. coli, strain D31 = experiment: turbidimetric lytic activity against E. coli; format: cell-based, Escherichia coli; details: for Specific Lytic Activity: 1 unit = 50% lysis; for specific lytic activity against E. coli compared with immune hemolymph: versus starting material
Text: (§1) The lytic activity of the P9 proteins against E. coli at each stage of the process can be determined turbidimetrically and the total weight of protein measured. For this purpose, one unit of lytic activity is defined as the amount of factor giving 50% reduction of the absorbance of […] (50% lysis) compared to a control. Log phase E. coli, strain D31 can be centrifuged and suspended in ice-cold 0.1 M phosphate buffer, pH 6.4, to give a density of 30 units on a Klett-Summerson colorimeter (A570 0.3-0.5). A small volume, usually 10 μl, of the sample to be tested is added to 1 ml of bacterial suspension in an ice bath. In the control samples, an equal amount of buffer is substituted. The mixture is incubated (30 minutes at 37° C.) and transferred back to the ice bath during which most of the clearing of the E. coli suspension occurs. Results of such a determination, usually measured within 1 h, are tabulated below in Table 1.

E. coli [1] = experiment: influence of anions on lytic activity of P9 proteins; format: cell-based, Escherichia coli; details: 0.045 M MES-buffer, pH 6.3
Experimental: as §1, with “Log phase E. coli, strain D31 can be centrifuged and suspended in ice-cold 0.1 M phosphate buffer, pH 6.4, to give a density of 30 units on a Klett-Summerson colorimeter (A570 0.3-0.5).” left out
The effects of sulfate or phosphate ions are hardly significant. The presence of acetate and formate buffers during the chromatography sequences until their removal by freeze-drying should be taken into account in interpreting the recovery data for protein P9 B in Table 1.

[2] = tested on: Enterobacter cloacae, β11; experiment: anti-bacterial specificity, killing time; format: cell-based; details: time required for killing 90% of the bacteria; 3 x 10^6 cells/ml
Text: (§2) The lysis of E. coli is believed to be due to at least two very similar small and basic proteins designated P9A and P9B. The P9 proteins are active against gram negative bacteria such as E. coli K12 strain D21f2, E. coli K12 strain D21, E. coli K12 strain D31, Enterobacter cloacae, β11, Pseudomonas aeruginosa, OT97, and Serratia marcescens, Db1108 but not S. marcescens Db11. The E. coli K12, strain D31 is a penicillin and streptomycin resistant mutant with a defective lipopolysaccharide. S. marcescens Db11 is a streptomycin resistant mutant derived from a parental strain, pathologic for Drosophila. S. marcescens Db1108 is a spontaneous phage resistant mutant of Db11. The bacterial strains are discussed in Boman, H. G., Nilsson-Faye, I., Paul, K. & Rasmuson, T. (1974) Infect. Immun. 10, 136-145; Monner, D. A., Jonsson, S. & Boman, H. G. (1971) J. Bacteriol. 107, 420-432; and Boman, H. G. & Monner, D. A. (1975) J. Bacteriol. 121, 455-464.
(§3) The anti-bacterial specificity of P9 proteins was determined for gram negative bacteria. Killing time shown in Table 4 is the time required for killing 90% of the bacteria. […] It is also clear that the heptose-less mutant E. coli D21f2 and S. marcescens Db1108 both were more sensitive to P9 proteins than their respective parental strains, D21 and Db11.

[3] = tested on: Escherichia coli K12, D21f2; experiment: anti-bacterial specificity, killing time; format: cell-based; details: time required for killing 90% of the bacteria; 3 x 10^6 cells/ml
Text: as §2, §3

[4] = tested on: Escherichia coli K12, D21; experiment: anti-bacterial specificity, killing time; format: cell-based; details: time required for killing 90% of the bacteria; 4 x 10^6 cells/ml
Text: as §2, §3

[5] = tested on: Pseudomonas aeruginosa, OT97; experiment: anti-bacterial specificity, killing time; format: cell-based; details: time required for killing 90% of the bacteria; 4 x 10^6 cells/ml
Text: as §2, §3

[6] = tested on: Serratia marcescens, Db1108; experiment: anti-bacterial specificity, killing time; format: cell-based; details: time required for killing 90% of the bacteria; 3 x 10^6 cells/ml
Text: as §2, §3

[7] = tested on: Serratia marcescens, Db11; experiment: anti-bacterial specificity, killing time; format: cell-based; details: time required for killing 90% of the bacteria; 3 x 10^6 cells/ml
Text: as §2, §3

E. coli [8] = experiment: heat stability in boiling water bath, remaining lytic activity; format: physicochemical, Escherichia coli
Text: FIG. 3 is a graph depicting the effect of heat on the lytic activity of lysozyme and P9 proteins. The filled symbols in the figure indicate a pH of 6.4; the open symbols indicate a pH of 3.2. Activity against E. coli is denoted in the figure by triangles; activity against M. Luteus is denoted by squares.
The activity against E. coli (triangles) is compared in FIG. 3 to the activity against M. luteus (squares). The former activity is associated with the P9 proteins and the latter with the lysozyme.

E. coli D31 = experiment: simultaneous decrease of absorbance at 570 nm and viable count; format: cell-based, Escherichia coli; details: eight units per ml, 1 min
Experimental: For E. coli D31 the effect of P9 proteins can be observed by simultaneously following the decrease in the absorbance at 570 nm and the viable count of E. coli. Eight units of protein P9 B per ml in 1 min gave a reduction of viable count from 10^8 to <10^5 while the absorbance dropped 14%.

[9] = fraction after Step 1 of chromatography
[10] = added salt: Ammonium formate, ionic strength 0.15 M
[11] = added salt: None, ionic strength 0.15 M with sodium chloride
[12] = added salt: Sodium acetate, ionic strength 0.15 M
[13] = added salt: Sodium phosphate, ionic strength 0.15 M
[14] = added salt: Sodium sulfate, ionic strength 0.15 M

Substance	Specific Lytic Activity (E. coli, strain D31; after Step 2 and freeze-drying)	Specific Lytic Activity (E. coli, strain D31; [9])	specific lytic activity against E. coli compared with immune hemolymph (E. coli, strain D31)	Relative Activity (E. coli [1]; [10])	Relative Activity (E. coli [1]; [11])	Relative Activity (E. coli [1]; [12])	Relative Activity (E. coli [1]; [13])	Relative Activity (E. coli [1]; [14])	Killing Time [2] [min]	Killing Time [3] [min]	Killing Time [4] [min]	Killing Time [5] [min]	Killing Time [6] [min]	Killing Time [7] [min]	heat stability in words (E. coli [8])	increase in activity (E. coli [1]; acetate or formate ions, ionic strength 0.15 M with sodium chloride)	drop of absorbance at 570 nm (E. coli D31) [%]	viable count after treatment (E. coli D31; reduction from 10^8)
N-LYS-TRP-LYS-LEU-PHE-LYS-LYS-ILE-GLU-LYS-VAL-GLY-GLN-ASN-ILE-ARG-ASP-GLY- ILE-ILE-LYS-ALA-GLY-PRO-ALA-VAL-ALA-VAL-VAL-GLY-GLN-ALA-THR-C (KWKLFKKIEKVGQNIRDGIIKAGPAVAVVGQAT; printed: LYS-TRP-LYS-LEU-PHE-LYS-LYS-ILE-GLU-LYS-VAL-GLY-GLN-ASN-ILE-ARG-ASP-GLY- ILE-ILE-LYS-ALA-GLY-PRO-ALA-VAL-ALA-VAL-VAL-GLY-GLN-ALA-THR-) [P9 A]	5.6 Units/μg of protein	4.4 Units/μg of protein	substantially greater	1.3	1.0	0.9	0.8	0.6	12	< 0.25	0.60	10	48	> 120	heat stable			
N-LYS-TRP-LYS-VAL-(MET)-ILE-(PHE)-LYS-LYS-ILE-(PHE)-GLU-LYS- -GLY-ARG-ASN-ILE-(PHE)-ARG-ASN-(LYS)-GLY- [P9 B]	1.9 Units/μg of protein	5.3 Units/μg of protein	substantially greater	4.5	1.0	4.1	1.3	1.2	15	< 0.25	1	5	115	> 120	heat stable	four-fold increase	14	< 10^5
